{"source": "patent US5395840A", "about": "“Heterocyclically substituted phenyl-cyclohexane-carboxylic acid derivatives” (Bayer Aktiengesellschaft, priority 1993, dated 1995)", "key": {"Angiotensin II Receptor": {"target": "T1, Angiotensin II Receptor (Bos taurus, UniProt P25104)", "T1 construct": "Adrenal gland cortices from cattle (AGCs), which have been freshly removed and carefully freed from gland medulla; from tissue; host or cells: bovine adrenal gland cortex, partially purified membrane fractions", "T1 sequence (P25104 1-359)": "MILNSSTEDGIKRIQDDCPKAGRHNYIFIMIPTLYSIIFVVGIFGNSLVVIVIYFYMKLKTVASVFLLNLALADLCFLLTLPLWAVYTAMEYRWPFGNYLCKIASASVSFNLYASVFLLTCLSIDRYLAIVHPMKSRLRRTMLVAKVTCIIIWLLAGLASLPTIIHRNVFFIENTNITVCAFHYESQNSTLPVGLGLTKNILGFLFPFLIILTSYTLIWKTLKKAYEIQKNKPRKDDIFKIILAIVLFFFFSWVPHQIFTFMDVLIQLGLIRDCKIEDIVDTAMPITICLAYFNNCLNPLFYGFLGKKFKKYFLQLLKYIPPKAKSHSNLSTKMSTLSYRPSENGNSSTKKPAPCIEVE", "assay": "Interaction with the angiotensin II receptor in membrane fractions of the adrenal gland cortex (bovine), 3H-angiotensin II binding", "details": "3H-angiotensin II (3-5 nM), bovine adrenal gland cortex membranes, 60 min at room temperature, pH 7.2", "procedure": "Adrenal gland cortices from cattle (AGCs), which have been freshly removed and carefully freed from gland medulla, are comminuted in sucrose solution (0.32M) with the aid of an Ultra-Turrax (Janke & Kunkel, Staufen i.B.) to give a coarse membrane homogenate and partially purified to give membrane fractions in two centrifugation steps.\nThe receptor binding investigations are carried out on partially purified membrane fractions of bovine AGC using radioactive angiotensin II in an assay volume of 0.25 ml, which specifically contains the partially purified membranes (50-80 μg), ^3 H-angiotensin II (3-5 nM), test buffer solution (50 mM Tris, pH 7.2, 5 mM MgCl2) and the substances to be investigated. After an incubation period of 60 min at room temperature, the unbound radioactivity of the samples is separated by means of moistened glass fiber filters (Whatman GF/C) and the bound radioactivity is measured […] in a scintillation cocktail after washing the protein with ice-cold buffer solution (50 mM Tris/HCl, pH 7.4, 5% PEG 6000). The raw data were analysed using computer programs to give Ki or IC50 values (Ki : IC50 values corrected for the radioactivity used; IC50 values: concentration at which the substance to be investigated causes a 50% inhibition of the specific binding of the radioligand)."}, "[1]": {"test_system": "contractions induced by AII (isolated rabbit aorta rings)", "assay": "Inhibition of the vascular contraction in isolated rabbit aorta rings in vitro, contractions induced by angiotensin II", "format": "cell-based", "details": "Oryctolagus cuniculus, based on the 3rd = submaximal agonist concentration, read-out: IC50 against contractions induced by: AII", "procedure": "Rabbits of either sex are stunned by a blow to the back of the head and bled out, or in some cases anaesthetized with Nembutal (about 60-80 mg/kg i.v.) and sacrificed by opening the thorax. The thoracic aorta is removed, freed from adhering connective tissue, divided into ring segments 1.5 mm wide and individually transferred under an initial loading of about 3.5 g to 10 ml organ baths containing Krebs-Henseleit nutrient solution, aerated with 95% O2 /5% CO2 and temperature-controlled at 37° C., of the following composition: 119 mmol/l of NaCl; 2.5 mmol/l of CaCl2 ×2H2 O; 1.2 mmol/l of KH2 PO4; 10 mmol/l of glucose; 4.8 mmol/l of KCl; 1.4 mmol/l of MgSO4 ×7H2 O and 25 mmol/l of NaHCO3.\nThe contractions are determined isometrically by means of Statham UC2 cells via bridge amplifiers (ifd Mulheim or DSM Aalen) and digitalized by means of A/D converters (System 570, Keithley Munich) and assessed. The agonist dose response curves (DRCs) are plotted hourly. With each DRC, 3 or 4 individual concentrations are applied to the baths =at a 4 min interval. […]\nThe height of the 3rd DRC, in a normal case, is used as a reference quantity for the assessment of the test substance to be investigated in further runs, which substance is applied to the baths in the following DRCs in each case in increasing dose at the start of the incubation period. […]"}, "smooth muscle cells": {"test_system": "smooth muscle cells", "assay": "Inhibition of the proliferation of smooth muscle cells (3H-thymidine incorporation)", "format": "cell-based", "details": "rat aortic smooth muscle cells, stimulated by 10% FCS", "procedure": "To determine the antiproliferative action of the compounds, smooth muscle cells are used which are obtained from the aortas of rats by the media explant technique [R. Ross, J. Cell. Biol. 50., 172, 1971]. The cells are inoculated into suitable culture dishes, as a rule 96-hole plates, and cultured at 37° C. in 5% CO2 for 2-3 days in medium 199 containing,7.5% FCS and 7.59% NCS, 2 mM L-glutamine and 15 mM HEPES, pH 7.4. The cells are then synchronized for 2-3 days by withdrawal of serum and then stimulated into growth using serum or other factors. Test compounds are simultaneously added. After 16-20 hours, 1 μCi ^3 H-thymidine is added and after a further 4 hours the incorporation of this substance into the TCA-precipitable DNA of the cells is determined. To determine the IC50 values, the active compound concentration is calculated which, on sequential dilution of the active compound, causes semi-maximum inhibition of the thymidine incorporation produced by 10% FCS."}}, "note": "pIC50, pKi: −log10 of the molar value."}
{"smiles": "CC(C)(C)OC(=O)[C@@H]1CCCC[C@H]1c1ccc(Cn2c(-c3ccccc3)nc3cccnc32)cc1", "note": "(relative stereo) [Example 9]", "values": [{"measurement": "pKi", "setting": "Angiotensin II Receptor", "result": 7.33}, {"measurement": "pIC50", "setting": "[1]", "result": 6.59}]}
{"smiles": "O=C(N[C@H](CO)c1ccccc1)C1CCCCC1c1ccc(Cn2c(C3CC3)nc3cccnc32)cc1", "note": "(single isomer, unassigned) [Example 16]", "values": [{"measurement": "pIC50", "setting": "smooth muscle cells", "result": 6.39}]}
{"smiles": "O=C(N[C@H](CO)c1ccccc1)C1CCCCC1c1ccc(Cn2c(C3CC3)nc3cccnc32)cc1", "note": "(single isomer, unassigned) [Example 17]", "values": [{"measurement": "pIC50", "setting": "smooth muscle cells", "result": 8.70}]}
{"smiles": "NC(=O)C(NC(=O)C1CCCCC1c1ccc(Cn2c(C3CC3)nc3cccnc32)cc1)c1ccccc1", "note": "(single isomer, unassigned) [Example 21]", "values": [{"measurement": "pIC50", "setting": "smooth muscle cells; Rattus norvegicus", "result": 8.15}]}
{"smiles": "O=C(N[C@H](CO)c1ccccc1)C1CCCCC1c1ccc(Cn2c(-c3ccccc3)nc3cccnc32)cc1", "note": "(stereo partly shown) [Example 25]", "values": [{"measurement": "pIC50", "setting": "smooth muscle cells; Rattus norvegicus", "result": 7.59}]}
{"smiles": "CCCCc1nc2cc(Br)cnc2n1Cc1ccc(C2CCCCC2C(=O)N[C@H](CO)c2ccccc2)cc1", "note": "(stereo partly shown) [Example 29]", "values": [{"measurement": "pIC50", "setting": "smooth muscle cells; Rattus norvegicus", "result": 8.40}]}
{"smiles": "CCCCc1nc2ccccc2n1Cc1ccc(C2CCCCC2C(=O)N[C@H](CO)c2ccccc2)cc1", "note": "(stereo partly shown) [Example 30]", "values": [{"measurement": "pKi", "setting": "Angiotensin II Receptor", "result": 7.72}, {"measurement": "pIC50", "setting": "[1]", "result": 6.66}]}
{"smiles": "CCCCc1nc2ccccc2n1Cc1ccc(C2CCCCC2C(=O)N[C@H](CO)c2ccccc2)cc1", "note": "(stereo partly shown) [Example 31]", "values": [{"measurement": "pIC50", "setting": "smooth muscle cells; Rattus norvegicus", "result": 8.52}]}
